{
  "source": "paper PMC7156458",
  "about": "“Synthetic biology based construction of biological activity-related library of fungal decalin-containing diterpenoid pyrones” (Nature Communications, 2020)",
  "target": "Aβ42 (Homo sapiens, UniProt P05067)",
  "sequence (P05067 672-713)": "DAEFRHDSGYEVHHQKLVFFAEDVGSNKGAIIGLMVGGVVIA",
  "test": "Th-T (thioflavin-T) assay of Aβ42 aggregation",
  "assay_type": "biochemical",
  "conditions": "for Th-T fluorescence of Aβ42 with compound, mean of three wells (Fig. 7a source data): concentration 50, unit not given",
  "data": [
    {"smiles": "C=C1CC[C@@H]2[C@](C)(CC[C@H]3O[C@H](C=C(C)C)C[C@@]23C)[C@@H]1Cc1c(OC)oc(CO)c(C(=O)OC)c1=O", "note": "[Compound 21]", "values": [
      {"measurement": "Th-T fluorescence of Aβ42 with compound, mean of three wells (Fig. 7a source data)", "setting": "time-course reading M143", "result": 0.5052},
      {"measurement": "Th-T fluorescence of Aβ42 with compound, mean of three wells (Fig. 7a source data)", "setting": "time-course reading M144", "result": 0.5053},
      {"measurement": "Th-T fluorescence of Aβ42 with compound, mean of three wells (Fig. 7a source data)", "setting": "time-course reading M145", "result": 0.5045},
      {"measurement": "Th-T fluorescence of Aβ42 (sheet Fig. 7a), mean of three wells", "setting": "head suffix _10 (concentration 10), reading M63", "result": 0.5289},
      {"measurement": "Th-T fluorescence of Aβ42 (sheet Fig. 7a), mean of three wells", "setting": "head suffix _10 (concentration 10), reading M64", "result": 0.6173},
      {"measurement": "Th-T fluorescence of Aβ42 (sheet Fig. 7a), mean of three wells", "setting": "head suffix _10 (concentration 10), reading M65", "result": 0.6561},
      {"measurement": "Th-T fluorescence of Aβ42 (sheet Fig. 7a), mean of three wells", "setting": "head suffix _10 (concentration 10), reading M66", "result": 0.6931},
      {"measurement": "Th-T fluorescence of Aβ42 (sheet Fig. 7a), mean of three wells", "setting": "head suffix _10 (concentration 10), reading M67", "result": 0.7435},
      {"measurement": "Th-T fluorescence of Aβ42 (sheet Fig. 7a), mean of three wells", "setting": "head suffix _10 (concentration 10), reading M68", "result": 0.7523},
      {"measurement": "Th-T fluorescence of Aβ42 (sheet Fig. 7a), mean of three wells", "setting": "head suffix _10 (concentration 10), reading M69", "result": 0.7892},
      {"measurement": "Th-T fluorescence of Aβ42 (sheet Fig. 7a), mean of three wells", "setting": "head suffix _10 (concentration 10), reading M70", "result": 0.7946},
      {"measurement": "Th-T fluorescence of Aβ42 (sheet Fig. 7a), mean of three wells", "setting": "head suffix _10 (concentration 10), reading M71", "result": 0.8033},
      {"measurement": "Th-T fluorescence of Aβ42 (sheet Fig. 7a), mean of three wells", "setting": "head suffix _10 (concentration 10), reading M72", "result": 0.7933},
      {"measurement": "Th-T fluorescence of Aβ42 (sheet Fig. 7a), mean of three wells", "setting": "head suffix _10 (concentration 10), reading M73", "result": 0.8223},
      {"measurement": "Th-T fluorescence of Aβ42 (sheet Fig. 7a), mean of three wells", "setting": "head suffix _10 (concentration 10), reading M74", "result": 0.8738},
      {"measurement": "Th-T fluorescence of Aβ42 (sheet Fig. 7a), mean of three wells", "setting": "head suffix _10 (concentration 10), reading M75", "result": 0.8711},
      {"measurement": "Th-T fluorescence of Aβ42 (sheet Fig. 7a), mean of three wells", "setting": "head suffix _10 (concentration 10), reading M76", "result": 0.921},
      {"measurement": "Th-T fluorescence of Aβ42 (sheet Fig. 7a), mean of three wells", "setting": "head suffix _10 (concentration 10), reading M77", "result": 0.9791},
      {"measurement": "Th-T fluorescence of Aβ42 (sheet Fig. 7a), mean of three wells", "setting": "head suffix _10 (concentration 10), reading M78", "result": 1.0381},
      {"measurement": "Th-T fluorescence of Aβ42 (sheet Fig. 7a), mean of three wells", "setting": "head suffix _10 (concentration 10), reading M79", "result": 1.098},
      {"measurement": "Th-T fluorescence of Aβ42 (sheet Fig. 7a), mean of three wells", "setting": "head suffix _10 (concentration 10), reading M80", "result": 1.155},
      {"measurement": "Th-T fluorescence of Aβ42 (sheet Fig. 7a), mean of three wells", "setting": "head suffix _10 (concentration 10), reading M81", "result": 1.227},
      {"measurement": "Th-T fluorescence of Aβ42 (sheet Fig. 7a), mean of three wells", "setting": "head suffix _10 (concentration 10), reading M82", "result": 1.285},
      {"measurement": "Th-T fluorescence of Aβ42 (sheet Fig. 7a), mean of three wells", "setting": "head suffix _10 (concentration 10), reading M83", "result": 1.378},
      {"measurement": "Th-T fluorescence of Aβ42 (sheet Fig. 7a), mean of three wells", "setting": "head suffix _10 (concentration 10), reading M84", "result": 1.428},
      {"measurement": "Th-T fluorescence of Aβ42 (sheet Fig. 7a), mean of three wells", "setting": "head suffix _20 (concentration 20), reading M63", "result": 0.2431},
      {"measurement": "Th-T fluorescence of Aβ42 (sheet Fig. 7a), mean of three wells", "setting": "head suffix _20 (concentration 20), reading M64", "result": 0.2464},
      {"measurement": "Th-T fluorescence of Aβ42 (sheet Fig. 7a), mean of three wells", "setting": "head suffix _20 (concentration 20), reading M65", "result": 0.2511},
      {"measurement": "Th-T fluorescence of Aβ42 (sheet Fig. 7a), mean of three wells", "setting": "head suffix _20 (concentration 20), reading M66", "result": 0.2535},
      {"measurement": "Th-T fluorescence of Aβ42 (sheet Fig. 7a), mean of three wells", "setting": "head suffix _20 (concentration 20), reading M67", "result": 0.2562},
      {"measurement": "Th-T fluorescence of Aβ42 (sheet Fig. 7a), mean of three wells", "setting": "head suffix _20 (concentration 20), reading M68", "result": 0.2616},
      {"measurement": "Th-T fluorescence of Aβ42 (sheet Fig. 7a), mean of three wells", "setting": "head suffix _20 (concentration 20), reading M69", "result": 0.2677},
      {"measurement": "Th-T fluorescence of Aβ42 (sheet Fig. 7a), mean of three wells", "setting": "head suffix _20 (concentration 20), reading M70", "result": 0.2739},
      {"measurement": "Th-T fluorescence of Aβ42 (sheet Fig. 7a), mean of three wells", "setting": "head suffix _20 (concentration 20), reading M71", "result": 0.2831},
      {"measurement": "Th-T fluorescence of Aβ42 (sheet Fig. 7a), mean of three wells", "setting": "head suffix _20 (concentration 20), reading M72", "result": 0.2882},
      {"measurement": "Th-T fluorescence of Aβ42 (sheet Fig. 7a), mean of three wells", "setting": "head suffix _20 (concentration 20), reading M73", "result": 0.2974},
      {"measurement": "Th-T fluorescence of Aβ42 (sheet Fig. 7a), mean of three wells", "setting": "head suffix _20 (concentration 20), reading M74", "result": 0.3106},
      {"measurement": "Th-T fluorescence of Aβ42 (sheet Fig. 7a), mean of three wells", "setting": "head suffix _20 (concentration 20), reading M75", "result": 0.3227},
      {"measurement": "Th-T fluorescence of Aβ42 (sheet Fig. 7a), mean of three wells", "setting": "head suffix _20 (concentration 20), reading M76", "result": 0.3296},
      {"measurement": "Th-T fluorescence of Aβ42 (sheet Fig. 7a), mean of three wells", "setting": "head suffix _20 (concentration 20), reading M77", "result": 0.3505},
      {"measurement": "Th-T fluorescence of Aβ42 (sheet Fig. 7a), mean of three wells", "setting": "head suffix _20 (concentration 20), reading M78", "result": 0.3679},
      {"measurement": "Th-T fluorescence of Aβ42 (sheet Fig. 7a), mean of three wells", "setting": "head suffix _20 (concentration 20), reading M79", "result": 0.3859},
      {"measurement": "Th-T fluorescence of Aβ42 (sheet Fig. 7a), mean of three wells", "setting": "head suffix _20 (concentration 20), reading M80", "result": 0.4085},
      {"measurement": "Th-T fluorescence of Aβ42 (sheet Fig. 7a), mean of three wells", "setting": "head suffix _20 (concentration 20), reading M81", "result": 0.4348},
      {"measurement": "Th-T fluorescence of Aβ42 (sheet Fig. 7a), mean of three wells", "setting": "head suffix _20 (concentration 20), reading M82", "result": 0.4734},
      {"measurement": "Th-T fluorescence of Aβ42 (sheet Fig. 7a), mean of three wells", "setting": "head suffix _20 (concentration 20), reading M83", "result": 0.5074},
      {"measurement": "Th-T fluorescence of Aβ42 (sheet Fig. 7a), mean of three wells", "setting": "head suffix _20 (concentration 20), reading M84", "result": 0.5384},
      {"measurement": "Th-T fluorescence of Aβ42 (sheet Fig. 7a), mean of three wells", "setting": "head suffix _50 (concentration 50), reading M63", "result": 0.2314},
      {"measurement": "Th-T fluorescence of Aβ42 (sheet Fig. 7a), mean of three wells", "setting": "head suffix _50 (concentration 50), reading M64", "result": 0.2365},
      {"measurement": "Th-T fluorescence of Aβ42 (sheet Fig. 7a), mean of three wells", "setting": "head suffix _50 (concentration 50), reading M65", "result": 0.2406},
      {"measurement": "Th-T fluorescence of Aβ42 (sheet Fig. 7a), mean of three wells", "setting": "head suffix _50 (concentration 50), reading M66", "result": 0.2402},
      {"measurement": "Th-T fluorescence of Aβ42 (sheet Fig. 7a), mean of three wells", "setting": "head suffix _50 (concentration 50), reading M67", "result": 0.2439},
      {"measurement": "Th-T fluorescence of Aβ42 (sheet Fig. 7a), mean of three wells", "setting": "head suffix _50 (concentration 50), reading M68", "result": 0.2485},
      {"measurement": "Th-T fluorescence of Aβ42 (sheet Fig. 7a), mean of three wells", "setting": "head suffix _50 (concentration 50), reading M69", "result": 0.2533},
      {"measurement": "Th-T fluorescence of Aβ42 (sheet Fig. 7a), mean of three wells", "setting": "head suffix _50 (concentration 50), reading M70", "result": 0.2583},
      {"measurement": "Th-T fluorescence of Aβ42 (sheet Fig. 7a), mean of three wells", "setting": "head suffix _50 (concentration 50), reading M71", "result": 0.2613},
      {"measurement": "Th-T fluorescence of Aβ42 (sheet Fig. 7a), mean of three wells", "setting": "head suffix _50 (concentration 50), reading M72", "result": 0.2693}
    ]}
  ]
}
